Columns and labels:
HCT-116 tumors = HCT-116 tumors in nude mice, combination with radiotherapy; format: in vivo; settings: 6.25, 12.5 or 25 mg/kg/day i.p. OMP 14 days + radiation 2 Gy/day x 10 doses; compared to radiotherapy or compound alone
Protocol: This study was done in nude mice bearing HCT-116 tumors in the leg. Three days (−3) prior to the beginning of radiotherapy, mice were implanted i.p with OMPs delivering A-620223 at 0, 6.25, 12.5, or 25 mg/kg/day for 14 days. Starting day 0 mice received radiation treatment (2 Gy/day) for 10 doses alone or in combination with the 3 different doses of 2-(N-propylpiperidin-4-yl)benzimidazole-4-carboxamide.

[1] = system: 9 L orthotopic gliosarcoma; experiment: 9L orthotopic gliosarcoma, combination with TMZ; format: in vivo, Fisher 344 rats
Protocol: Tumor growth was monitored longitudinally using contrast-enhanced magnetic resonance imaging (MRI). Animal survival was evaluated based on humane euthanasia of rats presenting signs of irreversible illness.

[2] = system: MX-1 breast carcinoma xenograft; experiment: MX-1 breast carcinoma xenograft, combination with carboplatin; format: in vivo, scid mice
Excerpt: The MX-1 breast carcinoma xenograft model in scid mice was used to test the ability of A-861695 to potentiate the efficacy of platinum-based agents. This cell line was derived from a person with a poorly differentiated mammary carcinoma. MX-1 is sensitive to cytotoxic agents. Carboplatin, a second-generation platinum containing anticancer drug, is currently the standard of care for treating lung, ovarian, and head and neck cancers. MX-1 tumors are sensitive to carboplatin. […] Mice were randomized into treatment groups of 8-10 mice per group. […] A-861695 was administered at 25 mg/kg/day s.c., via 14-day osmotic minipumps (OMPs) starting on day 17. Carboplatin was given i.p., on day 20, 24 and 27.

[3] = system: intra-cerebellar medulloblastoma xenographs; HSB T-cell ALL; JM1 pre-B ALL; P115 primary AML cells; experiment: TMZ and ABT-888 combinations in medulloblastoma xenografts and leukemia cells (FIGS. 7-11); format: in vivo, mice; settings: differing amounts of TMZ and ABT-888 combinations
[4] = system: MX-1 breast carcinoma xenograft; experiment: MX-1 breast carcinoma xenograft, combination with cisplatin; format: in vivo, nude mice
Protocol: In this study the efficacy of A-861695 in combination with cisplatin was evaluated in the MX-1 breast carcinoma xenograft model in nude mice. Tumors were size-matched to 100 mm^3 on day 16 and PARP inhibitor therapy (p.o., b.i.d. ×8) was initiated the same day. A single dose of cisplatin at 6.0 mg/kg/day was administered i.p. day 18. Data, shown in FIG. 5, are mean±S.E.M. of 9 mice per treatment group.

B16F10 murine melanoma = experiment: B16F10 murine melanoma, combination with TMZ; format: in vivo, C57BL/6 mice; settings: A-861695 25, 12.5 or 3.1 mg/kg/day p.o. b.i.d. days 1-14 + TMZ 62.5 mg/kg/day p.o. q.d. x5
Protocol: This study was done on mice with B 16F 10 murine melanoma. Mice were divided into six treatment groups with 8-10 mice per group. See figure two for treatment groups. B16F10 cells were injected s.c. into C57BL/6 mice on day 0. Dosing was initiated on day one. A-861695 was administered p.o., b.i.d. on days 1-14. On days 3-7 temozolomide (TMZ) was administered p.o., q.d. (for the groups receiving both TMZ and A-861695, TMZ was given two hours after the A-861695 was administered).

DoHH-2 cells = experiment: B-cell lymphoma (DoHH-2 cell) flank xenograft; settings: for Mean Tumor Volume Day 27 mm^3 ± SE: ABT-888 25 mg/kg/day PO BID 7 days, Temozolomide 50 mg/kg/day PO QD 5 days, tumor size at start 503 mm^3; for % T/C Day 28 (dosing 11 days): treatment group/corresponding vehicle group x 100
Protocol: Animals were size matched on day 15 to an approximate tumor volume of 503 mm^3.
Group mouse weights were recorded three times a week to monitor for weight loss due to toxicity or excessive tumor burden.

[5] = system: PC3M-Luc human prostate carcinoma; experiment: Orthotopic PC3M-Luc human prostate carcinoma model (BLI); format: in vivo, male SCID-C.B17 mice; settings: TMZ 50 mg/kg/day alone or with ABT-888 25 mg/kg/day
Protocol: Bioluminescent PC-3M-luciferase-C6 osteolytic human prostate cancer cells, constitutively expressing luciferase (Caliper Life Sciences, Hopkinton, Mass.) were orthotopically injected into the prostates of ˜10-week-old male SCID-C.B17 mice (C.B-17/IcrCrl-scid-BR, Charles River Labs). Mice were housed in a facility with constant humidity, temperature and a 12-h light-dark cycle. Mice were anesthetized with intramuscular injections of ketamine (40 mg/kg) and rompum (5 mg/kg) before surgery. The surgical region was shaved and sterilized with iodine and alcohol swabs. A lower midline incision was made to access the prostate. The left lobe of the dorsal prostate was injected with 1×10^6 PC3M-Luc cells (975 photon/second/cell) in 30 μl (1:1 matrigel, Collaborative Biomedical Products, Bedford, Mass.). The peritoneal cavity was closed with 4-0 suture and skin incision was closed with clip.
In vivo bioluminescent image (BLI) was performed with an IVISR Imaging System (Caliper Life Sciences, Hopkinton, Mass.). […] Images and measurements of bioluminescent signals were acquired and analyzed using Living Image® software (Caliper Life Sciences, Hopkinton, Mass.). Uniform region of interests (ROIs) were used across all groups and time points to achieve quantification of bioluminescent signal. […] The mice were then monitored with this system at weekly intervals. […]

tumor = experiment: Valproic acid and radiotherapy (FIG. 6); format: in vivo; settings: single and combined administration of valproic acid and radiotherapy
[6] = TMZ 50 PO q.d x 5, ABT-888/TMZ 25/50 mg/kg/day po b.i.d./po q.d., normalized BLI post size match

Question: For `CCCN1CCC(c2nc3cccc(C(N)=O)c3[nH]2)CC1` [2-(N-propylpiperidin-4-yl)benzimidazole-4-carboxamide], which “reduction of tumor size in combination with radiotherapy (FIG. 1)” value (HCT-116 tumors) is on record?
Answer: Its value is “significant improvement in the reduction of tumor size”.

Question: Which results are given for `C[C@]1(c2nc3c(C(N)=O)cccc3[nH]2)CCCN1` [ABT-888, 2-[(2R)-2-methylpyrrolidin-2-yl]-1H-benzimidazole-4-carboxamide]?
Answer: tumor volume reduction better than TMZ alone ([1]; A-861695 50 mg/kg/day + TMZ 17.5 mg/kg/day, day 14, p<0.005): 44%; reduction of tumor volume (day 14) ([1]; A-861695 50 mg/kg/day p.o. b.i.d. in combination with TMZ 17.5 mg/kg/day p.o. q.d., MRI): 63%; animal survival ([1]; A-861695 18 or 50 mg/kg/day with TMZ, p<0.005 Log-rank test): significantly prolonged animal survival; potentiation of carboplatin (tumor volumes, FIG. 4) ([2]; A-861695 25 mg/kg/day s.c. OMP 14 days + carboplatin 10 and 15 mg/kg/day): pronounced potentiation of carboplatin; effect on toxicity of TMZ (FIGS. 7-11) [3]: enhancement of toxicity of TMZ; cures (no measurable tumors at end of the trial) ([4]; A-861695 5 mg/kg/day p.o. b.i.d. x8 + cisplatin 6.0 mg/kg/day i.p. day 18): 8/9; cures (no measurable tumors at end of the trial) ([4]; A-861695 25 mg/kg/day p.o. b.i.d. x8 + cisplatin 6.0 mg/kg/day i.p. day 18): 8/9; cures (no measurable tumors at end of the trial) ([4]; A-861695 50 mg/kg/day p.o. b.i.d. x8 + cisplatin 6.0 mg/kg/day i.p. day 18): 6/9; dose at which maximal potentiation of cisplatin was reached ([4]; dose-response 5, 25, 50 mg/kg/day): 5 mg/kg/day; potentiation of TMZ efficacy (FIG. 2) (B16F10 murine melanoma): significantly potentates the TMZ efficacy in a dose dependent manner; Mean Tumor Volume Day 27 mm^3 ± SE (DoHH-2 cells): 2970 ± 410 mm^3; Observations (DoHH-2 cells; toxicity assessment in Scid female mice): None; % T/C Day 28 (dosing 11 days) (DoHH-2 cells): 127 (—) %; bioavailability in brain tissue (compared to other PARP inhibitors): improved bioavailability in brain tissue; blood brain barrier (rat, in vivo): crosses the blood brain barrier

Question: For `Cn1nnc2c(C(N)=O)ncn2c1=O` [TMZ, temozolomide], which “efficacy after second treatment schedule (day 55)” value [5] is on record?
Answer: The value was “no efficacy”.

Question: What about the “Day 12 % Tumor change (BLI)” value (MDA-231-LN-luc cells; [6]) of the same compound?
Answer: The value was 66 ± 76%.

Question: What about the “Day 30 % Tumor change (BLI)” value (MDA-231-LN-luc cells; [6]) of the same compound?
Answer: The value was 1217 ± 560%.

Question: And the “Weight loss (Observations)” value (MDA-231-LN-luc cells; after last dose of 2nd cycle)?
Answer: Its value is greater than 10% after last.

Question: What about the Mortality (MDA-231-LN-luc cells; three cycles of 5 days with 11 days of rest, n=11) of the same compound?
Answer: The Mortality was 0/11.

Question: What about the “Mean Tumor Volume Day 27 mm^3 ± SE” value (DoHH-2 cells) of the same compound?
Answer: Its value is 2202 ± 253 mm^3.

Question: And the “% T/C Day 28 (dosing 11 days)” value (DoHH-2 cells)?
Answer: The value was 94%.

Question: What about the “% TGI Day 28 (dosing 11 days)” value (DoHH-2 cells; tumor growth inhibition vs vehicle) of the same compound?
Answer: The value was 6%.

Question: With `N.N.O=C([O-])C1(C(=O)[O-])CCC1.[Pt+2]` [carboplatin, reference compound] as the compound, how does the “tumor inhibition as a single agent (FIG. 4)” value ([2]; carboplatin 5, 10, 15 mg/kg/day i.p. day 20, 24, 27) read?
Answer: The value was “dose-dependent tumor inhibition”.

Question: For `N.N.[Cl][Pt][Cl]` [cisplatin, reference compound], which “cures (no measurable tumors at end of the trial)” value ([4]; cisplatin monotherapy 6.0 mg/kg/day i.p. day 18) is on record?
Answer: Its value is 3/9.

Question: With `CCCC(CCC)C(=O)O` [valproic acid] as the compound, how does the “effect on radiotherapy (FIG. 6)” value (tumor) read?
Answer: The value was “can enhance the effects of radiotherapy”.

From patent US20090029966A1, “COMBINATION THERAPY WITH PARP INHIBITORS” (ABBOTT LABORATORIES, priority 2006, published 2009)
